Source: patent US11472799B2, “Serine threonine kinase (AKT) degradation / disruption compounds and methods of use” (Icahn School of Medicine at Mount Sinai, priority 2018, dated 2022)

Each compound was assayed on AKT (assay: Western blot of AKT protein levels and downstream signaling in BT474 cells). Conditions: Western blot (FIGS. 1, 3, 4).
Type: cell-based, human
Method: PC-3, U87MG, HCC1143, MDA-MB-231, MDA-MB-468, BT474 and MCF-7 cell lines were purchased from ATCC. Cell lines were regularly tested in the lab for mycoplasma. All cells were cultured at 37° C. and 5% CO2. PC-3, U87MG, MDA-MB-231, MCF-7 and BT474 cells were cultured in 1×DMEM (Corning, 10-013-CV) with 10% fetal bovine serum (Atlanta Biologicals S11150) and 1× Penicillin/Streptomycin. HCC1143 cells were cultured in RPMI (Corning, 10-040-CV) medium with 10% fetal bovine serum (Atlanta Biologicals S11150) and 1× Penicillin/Streptomycin. Cells were split using 0.05% or 0.25% trypsin (Corning 25-051-Cl or 25-053-Cl, respectively) before they reached full confluence and media was changed every 3-4 days. Cells were treated with compounds individually at different concentrations for 24 hrs. Cells were treated with DMSO, VHL, or PML alone as controls.
Cells were lysed in 2× sample buffer (125 mM Tris-HCl at pH 6.8, 10% βME, 2% SDS, 20% glycerol, 0.05% Bromophenol Blue, 8 M urea). Protein lysates were loaded into 4-12% Bis-Tris gels and resolved by electrophoresis. Samples were then blotted on PVDF membrane (Millipore IPVH00010) using the wet transfer technique (Invitrogen). Membranes were blocked in 5% milk-TBST for 1 hour, washed in TBST for 10 min, and incubated in primary antibody in 5% milk-TBST or 5% BSA-TBST at 4° C. for 16 h. Membranes were rinsed (3×6 min) in TBST and incubated in horseradish peroxidase-conjugated secondary antibodies in 5% milk-TBST for 1 hour and rinsed again in TBST (3×6 min). Membranes were visualized using the chemiluminescence system (Thermo 34080, 37075) on autoradiography film (Denville E3018). Primary Antibodies: R-actin (Sigma A5316), p-AKT (Ser473 CST-9721), total AKT (CST-9272), p-S6 (Ser240/244, CST-5364), p-PRAS40 (Thr246, CST-2997). Secondary Antibodies: Mouse (Thermo 31432), Rabbit (Thermo 31460).

SMILES	suppression of AKT protein level and AKT activity
Cc1ncsc1-c1ccc(CNC(=O)[C@@H]2C[C@@H](O)CN2C(=O)[C@@H](NC(=O)CCCCCC(=O)N2CCN(CC[C@H](NC(=O)C3(N)CCN(c4ncnc5[nH]ccc45)CC3)c3ccc(Cl)cc3)CC2)C(C)(C)C)cc1 [XF050-17, 4-amino-N-((S)-1-(4-chlorophenyl)-3-(4-(7-(((S)-1-((2S,4R)-4-hydroxy-2-((4-(4-methylthiazol-5-yl)benzyl)carbamoyl)pyrrolidin-1-yl)-3,3-dimethyl-1-oxobutan-2-yl)amino)-7-oxoheptanoyl)piperazin-1-yl)propyl)-1-(7H-pyrrolo[2,3-d]pyrimidin-4-yl)piperidine-4-carboxamide]	effective in suppressing both AKT protein level and AKT activity
C[C@@H]1C[C@@H](O)c2ncnc(N3CCN(C(=O)[C@H](CNCCNC(=O)CCOCCOCCOCCOCCOCCNc4cccc5c4C(=O)N(C4CCC(=O)NC4=O)C5=O)c4ccc(Cl)cc4)CC3)c21 (stereo partly drawn) [XF048-4, N-(2-(((S)-2-(4-chlorophenyl)-3-(4-((5R,7R)-7-hydroxy-5-methyl-6,7-dihydro-5H-cyclopenta[d]pyrimidin-4-yl)piperazin-1-yl)-3-oxopropyl)amino)ethyl)-1-((2-(2,6-dioxopiperidin-3-yl)-1,3-dioxoisoindolin-4-yl)amino)-3,6,9,12,15-pentaoxaoetadecan-18-amide]	effective in suppressing both AKT protein level and AKT activity
Cc1ncsc1-c1ccc(CNC(=O)[C@@H]2C[C@@H](O)CN2C(=O)[C@@H](NC(=O)CCCCCCCCC(=O)N2CCN(CC[C@H](NC(=O)C3(N)CCN(c4ncnc5[nH]ccc45)CC3)c3ccc(Cl)cc3)CC2)C(C)(C)C)cc1 [XF050-20, 4-amino-N-((S)-1-(4-chlorophenyl)-3-(4-(10-(((S)-1-((2S,4R)-4-hydroxy-2-((4-(4-methylthiazol-5-yl)benzyl)carbamoyl)pyrrolidin-1-yl)-3,3-dimethyl-1-oxobutan-2-yl)amino)-10-oxodecanoyl)piperazin-1-yl)propyl)-1-(7H-pyrrolo[2,3-d]pyrimidin-4-yl)piperidine-4-carboxamide]	effective in suppressing both AKT protein level and AKT activity
Cc1ncsc1-c1ccc(CNC(=O)[C@@H]2C[C@@H](O)CN2C(=O)[C@@H](NC(=O)COCCOCC(=O)N2CCN(CC[C@H](NC(=O)C3(N)CCN(c4ncnc5[nH]ccc45)CC3)c3ccc(Cl)cc3)CC2)C(C)(C)C)cc1 [XF050-7, 4-amino-N-((S)-1-(4-chlorophenyl)-3-(4-(2-(2-(2-(((S)-1-((2S,4R)-4-hydroxy-2-((4-(4-methylthiazol-5-yl)benzyl)carbamoyl)pyrrolidin-1-yl)-3,3-dimethyl-1-oxobutan-2-yl)amino)-2-oxoethoxy)ethoxy)acetyl)piperazin-1-yl)propyl)-1-(7H-pyrrolo[2,3-d]pyrimidin-4-yl)piperidine-4-carboxamide]	effective in suppressing both AKT protein level and AKT activity
C[C@@H]1C[C@@H](O)c2ncnc(N3CCN(C(=O)[C@H](CNCCC(=O)NCCCCCCCCCc4cccc5c4C(=O)N(C4CCC(=O)NC4=O)C5=O)c4ccc(Cl)cc4)CC3)c21 (stereo partly drawn) [XF056-93, 3-(((S)-2-(4-chlorophenyl)-3-(4-((5R,7R)-7-hydroxy-5-methyl-6,7-dihydro-5H-cyclopenta[d]pyrimidin-4-yl)piperazin-1-yl)-3-oxopropyl)amino)-N-(9-(2-(2,6-dioxopiperidin-3-yl)-1,3-dioxoisoindolin-4-yl)nonyl)propanamide]	effective in suppressing both AKT protein level and AKT activity
Cc1ncsc1-c1ccc(CNC(=O)[C@@H]2C[C@@H](O)CN2C(=O)[C@@H](NC(=O)COCC(=O)N2CCN(CC[C@H](NC(=O)C3(N)CCN(c4ncnc5[nH]ccc45)CC3)c3ccc(Cl)cc3)CC2)C(C)(C)C)cc1 [XF050-5, 4-amino-N-((S)-1-(4-chlorophenyl)-3-(4-(2-(2-(((S)-1-((2S,4R)-4-hydroxy-2-((4-(4-methylthiazol-5-yl)benzyl)carbamoyl)pyrrolidin-1-yl)-3,3-dimethyl-1-oxobutan-2-yl)amino)-2-oxoethoxy)acetyl)piperazin-1-yl)propyl)-1-(7H-pyrrolo[2,3-d]pyrimidin-4-yl)piperidine-4-carboxamide]	effective in suppressing both AKT protein level and AKT activity
C[C@@H]1C[C@@H](O)c2ncnc(N3CCN(C(=O)[C@H](CNCCNC(=O)CCOCCOCCNc4cccc5c4C(=O)N(C4CCC(=O)NC4=O)C5=O)c4ccc(Cl)cc4)CC3)c21 (stereo partly drawn) [XF048-1, N-(2-(((N)-2-(4-chlorophenyl)-3-(4-((5R,7R)-7-hydroxy-5-methyl-6,7-dihydro-5H-cyclopenta[d]pyrimidin-4-yl)piperazin-1-yl)-3-oxopropyl)amino)ethyl)-3-(2-(2-((2-(2,6-dioxopiperidin-3-yl)-1,3-dioxoisoindolin-4-yl)amino)ethoxy)ethoxy) propanamide]	effective in suppressing both AKT protein level and AKT activity
Cc1ncsc1-c1ccc(CNC(=O)[C@@H]2C[C@@H](O)CN2C(=O)[C@@H](NC(=O)CCCCC(=O)N2CCN(CC[C@H](NC(=O)C3(N)CCN(c4ncnc5[nH]ccc45)CC3)c3ccc(Cl)cc3)CC2)C(C)(C)C)cc1 [XF050-16, 4-amino-N-((S)-1-(4-chlorophenyl)-3-(4-(6-(((S)-1-((2S,4R)-4-hydroxy-2-((4-(4-methylthiazol-5-yl)benzyl)carbamoyl)pyrrolidin-1-yl)-3,3-dimethyl-1-oxobutan-2-yl)amino)-6-oxohexanoyl)piperazin-1-yl)propyl)-1-(7H-pyrrolo[2,3-d]pyrimidin-4-yl)piperidine-4-carboxamide]	effective in suppressing both AKT protein level and AKT activity
NC1(C(=O)N[C@@H](CCN2CCN(C(=O)CCOCCOCCOCCNc3cccc4c3C(=O)N(C3CCC(=O)NC3=O)C4=O)CC2)c2ccc(Cl)cc2)CCN(c2ncnc3[nH]ccc23)CC1 (stereo partly drawn) [XF050-31, 4-amino-N-((1S)-1-(4-chlorophenyl)-3-(4-(3-(2-(2-(2-((2-(2,6-dioxopiperidin-3-yl)-1,3-dioxoisoindolin-4-yl)amino)ethoxy)ethoxy)ethoxy)propanoyl)piperazin-1-yl)propyl)-1-(7H-pyrrolo[2,3-d]pyrimidin-4-yl)piperidine-4-carboxamide]	effective in suppressing both AKT protein level and AKT activity
C[C@@H]1C[C@@H](O)c2ncnc(N3CCN(C(=O)[C@H](CNCCC(=O)NCCOCCOCCOCCOCCOCCNc4cccc5c4C(=O)N(C4CCC(=O)NC4=O)C5=O)c4ccc(Cl)cc4)CC3)c21 (stereo partly drawn) [XF038-177A, 3-(((S)-2-(4-chlorophenyl)-3-(4-((5R,7R)-7-hydroxy-5-methyl-6,7-dihydro-5H-cyclopenta[d]pyrimidin-4-yl)piperazin-1-yl)-3-oxopropyl)amino)-N-(17-((2-(2,6-dioxopiperidin-3-yl)-1,3-dioxoisoindolin-4-yl)amino)-3,6,9,12,15-pentaoxaheptadecyl) propanamide]	effective in suppressing both AKT protein level and AKT activity
NC1(C(=O)N[C@@H](CCN2CCN(C(=O)CCOCCOCCOCCOCCOCCOc3cccc4c3C(=O)N(C3CCC(=O)NC3=O)C4=O)CC2)c2ccc(Cl)cc2)CCN(c2ncnc3[nH]ccc23)CC1 (stereo partly drawn) [XF056-37, 4-amino-N-((1S)-1-(4-chlorophenyl)-3-(4-(1-((2-(2,6-dioxopiperidin-3-yl)-1,3-dioxoisoindolin-4-yl)oxy)-3,6,9,12,15-pentaoxaoctadecan-18-oyl)piperazin-1-yl)propyl)-1-(7H-pyrrolo[2,3-d]pyrimidin-4-yl)piperidine-4-carboxamide]	effective in suppressing both AKT protein level and AKT activity
C[C@@H]1C[C@@H](O)c2ncnc(N3CCN(C(=O)[C@H](CNCCC(=O)NCCCCCCCNc4cccc5c4C(=O)N(C4CCC(=O)NC4=O)C5=O)c4ccc(Cl)cc4)CC3)c21 (stereo partly drawn) [XF048-5, 3-(((S)-2-(4-chlorophenyl)-3-(4-((5R,7R)-7-hydroxy-5-methyl-6,7-dihydro-5H-cyclopenta[d]pyrimidin-4-yl)piperazin-1-yl)-3-oxopropyl)amino)-N-(7-((2-(2,6-dioxopiperidin-3-yl)-1,3-dioxoisoindolin-4-yl)amino)heptyl)propanamide]	effective in suppressing both AKT protein level and AKT activity
